In test [1] the target is T1, PI3Kα (wild-type) (Homo sapiens, UniProt P42336).
T1 construct: made in house; host or cells: SF9 insect cells
Description: PI3 Kinase TR-FRET assay, PI3Kα (wild-type). In kind it is biochemical. Particulars: wild-type P110/P85α, 10 μM ATP. On the procedure: The ability of compounds of the invention to inhibit PI3K activity was determined in a homogeneous TR-FRET assay using a PI3K assay kit (Millipore, USA; cat #33-016) according to manufacturer's instructions. PI3-Kinases (isoforms α, β, γ and δ) catalyze the phosphorylation of phosphatidylinositol, PIP2 to PIP3 in the presence of ATP and Mg^2+. The PIP3 product is detected by displacement of biotin-PIP3 from an energy transfer complex consisting of Europium labeled anti-GST monoclonal antibody, a GST-tagged PH domain, biotinylated PIP3 and Streptavidin-APC. Excitation of Europium in the complex results in an energy transfer to the APC and a fluorescence emission at 665 nm. The PIP3 product displaces biotin-PIP3 from the complex resulting in a loss of energy transfer and thus a decrease in signal.
To test for the ability of compounds to inhibit the activity of PI3Kα (wild-type), exemplary compounds of formula (I) were dissolved in DMSO and directly distributed into 384-well plates at a volume of 0.5 μL. 14.5 μL of P110/P85α/PIP2 mixture in buffer (obtained from the Millipore kit) containing MgCl2 (40 mM) and DTT (5 mM) was added to compound wells and incubated for 60 minutes at room temperature. P110/P85α was expressed in SF9 insect cells and purified nickel column extraction. Five ng of wild-type P110/P85α was used in the assay. The kinase reaction was started by the addition of ATP. The assay concentrations of both PIP2 and ATP were 10 μM. The reaction mixture was incubated for 30 minutes at room temperature and was terminated by the addition of stop mix and detection mix. Fluorescence was measured at 615 and 665 nm upon excitation at 340 nm in a Victor™ V5 fluorometer (Perkin Elmer, USA). The fluorescence emission ratio at 665 to 615 nm, proportional to the kinase activity, was plotted against the compound concentration to generate dose-response curves and IC50 values were determined using GraphPad Prism® 5 software.
For orientation: TR-FRET usually uses a lanthanide donor and a delayed reading to cut background.

For test [2], the target named is T2, mTOR kinase (Homo sapiens, UniProt P42345).
T2 construct: purchased Millipore, USA
The test is described as follows: mTOR kinase TR-FRET assay. Type of test: biochemical. The conditions noted are these: 20 μM ATP. On the procedure: Compound inhibition for mTOR kinase was determined in a homogeneous TR-FRET assay using the Lance® ULight-p70 S6K (Thr 389) peptide (obtained from Perkin-Elmer). The ULight™-labeled synthetic peptide contains the amino acid residues surrounding Thr389 of human p70 S6K. The ULight-p70 S6K peptide is phosphorylated at Thr389 by mTOR. Phosphorylation motif: LGFTYVAP as substrate.
The compound dilution was carried out in 100% DMSO followed by a buffer dilution. The reaction buffer was HEPES (50 mM pH 7.5), EGTA (1 mM), MnCl2 (3 mM). Test compounds at various concentrations were pre-incubated with mTOR (Millipore, USA; 5 ng) for 60 min, and then the Lance® ULight-p70 S6K (Thr 389) peptide (50 nM) was added along with ATP (20 μM). After incubating the reaction mixture for 60 minutes at room temperature, the kinase reaction was terminated by the addition of EDTA (10 mM) followed by the addition of detection mix, i.e., 1 nM Eu-labeled anti-phospho-substrate antibody (Perkin Elmer, USA). The fluorescence emission at […] was measured upon excitation at 340 nm. IC50 values were subsequently determined using a sigmoidal dose-response curve (variable slope) in GraphPad Prism® 5 software.
Compounds of formula (I) caused inhibition of mTOR kinase activity as determined by this assay.

In test [3] the test system is PC3 cells. The test is described as follows: XTT assay for cell viability, PC3 cells. The conditions noted are these: Homo sapiens, PC-3; PC3 cell proliferation, 96 hours. Type of test: cell-based. On the procedure:
Using a commercial kit from Sigma Aldrich (Catalog #X34251) and following its protocol, PC3 cells in the log phase of growth were employed and seeded at an optimal density of 1000 cell/well on to 96 well plates and incubated for 24 hours followed by the addition of compounds of formula (I) in serial dilutions. Compound dilutions were made in DMSO. The cells were incubated with the compounds of formula (I) for 96 hours and XTT tetrazolium dye (Sigma, USA) was subsequently added and incubated at 37° C. After the color formation, absorbance was measured at 465 nm in a Spectramax® Gemini spectrophotometer. EC50 values were calculated using a sigmoidal dose response curve fit in GraphPad Prism® v5 software. The tested compounds of formula (I) which caused inhibition of PC3 cell proliferation as determined by this assay protocol are shown in Table 2.
In general terms: Tetrazolium dyes change colour on reduction, which living cells bring about.

By IC50 is commonly meant the concentration that inhibits the measured activity by half.

Structures are written as SMILES. A value given as a limit tells only on which side of the number the result lay.

T2 sequence (P42345 1362-2549 limits assumed): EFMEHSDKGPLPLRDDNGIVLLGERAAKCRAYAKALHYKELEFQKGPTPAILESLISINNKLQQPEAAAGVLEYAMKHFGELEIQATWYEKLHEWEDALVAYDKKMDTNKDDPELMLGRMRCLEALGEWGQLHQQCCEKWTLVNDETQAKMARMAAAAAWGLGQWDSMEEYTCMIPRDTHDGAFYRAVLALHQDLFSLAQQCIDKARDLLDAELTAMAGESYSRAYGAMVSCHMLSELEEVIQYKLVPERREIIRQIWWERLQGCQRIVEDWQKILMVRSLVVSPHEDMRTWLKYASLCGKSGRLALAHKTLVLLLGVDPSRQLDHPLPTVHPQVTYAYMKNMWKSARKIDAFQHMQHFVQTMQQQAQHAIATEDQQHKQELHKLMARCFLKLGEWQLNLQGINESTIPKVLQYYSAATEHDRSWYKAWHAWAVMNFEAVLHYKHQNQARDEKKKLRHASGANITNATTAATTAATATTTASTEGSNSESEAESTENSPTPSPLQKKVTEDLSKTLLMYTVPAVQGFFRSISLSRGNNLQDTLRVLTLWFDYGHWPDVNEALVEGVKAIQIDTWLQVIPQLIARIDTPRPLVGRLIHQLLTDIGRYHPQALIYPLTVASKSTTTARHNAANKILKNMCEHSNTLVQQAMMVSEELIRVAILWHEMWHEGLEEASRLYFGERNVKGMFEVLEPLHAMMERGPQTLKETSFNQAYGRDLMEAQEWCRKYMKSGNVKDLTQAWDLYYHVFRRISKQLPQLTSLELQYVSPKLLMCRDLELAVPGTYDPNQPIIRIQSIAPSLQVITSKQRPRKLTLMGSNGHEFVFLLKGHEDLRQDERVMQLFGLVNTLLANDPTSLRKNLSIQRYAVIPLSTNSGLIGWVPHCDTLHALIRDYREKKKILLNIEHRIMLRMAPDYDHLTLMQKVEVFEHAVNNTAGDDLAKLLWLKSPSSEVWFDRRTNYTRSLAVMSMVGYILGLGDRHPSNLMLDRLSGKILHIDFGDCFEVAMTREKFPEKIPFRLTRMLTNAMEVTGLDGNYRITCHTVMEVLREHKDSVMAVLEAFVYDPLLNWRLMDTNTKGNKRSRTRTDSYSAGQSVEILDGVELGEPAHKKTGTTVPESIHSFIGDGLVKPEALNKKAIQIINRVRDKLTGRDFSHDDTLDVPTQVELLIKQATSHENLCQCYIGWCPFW
T1 sequence (P42336 whole entry, species assumed): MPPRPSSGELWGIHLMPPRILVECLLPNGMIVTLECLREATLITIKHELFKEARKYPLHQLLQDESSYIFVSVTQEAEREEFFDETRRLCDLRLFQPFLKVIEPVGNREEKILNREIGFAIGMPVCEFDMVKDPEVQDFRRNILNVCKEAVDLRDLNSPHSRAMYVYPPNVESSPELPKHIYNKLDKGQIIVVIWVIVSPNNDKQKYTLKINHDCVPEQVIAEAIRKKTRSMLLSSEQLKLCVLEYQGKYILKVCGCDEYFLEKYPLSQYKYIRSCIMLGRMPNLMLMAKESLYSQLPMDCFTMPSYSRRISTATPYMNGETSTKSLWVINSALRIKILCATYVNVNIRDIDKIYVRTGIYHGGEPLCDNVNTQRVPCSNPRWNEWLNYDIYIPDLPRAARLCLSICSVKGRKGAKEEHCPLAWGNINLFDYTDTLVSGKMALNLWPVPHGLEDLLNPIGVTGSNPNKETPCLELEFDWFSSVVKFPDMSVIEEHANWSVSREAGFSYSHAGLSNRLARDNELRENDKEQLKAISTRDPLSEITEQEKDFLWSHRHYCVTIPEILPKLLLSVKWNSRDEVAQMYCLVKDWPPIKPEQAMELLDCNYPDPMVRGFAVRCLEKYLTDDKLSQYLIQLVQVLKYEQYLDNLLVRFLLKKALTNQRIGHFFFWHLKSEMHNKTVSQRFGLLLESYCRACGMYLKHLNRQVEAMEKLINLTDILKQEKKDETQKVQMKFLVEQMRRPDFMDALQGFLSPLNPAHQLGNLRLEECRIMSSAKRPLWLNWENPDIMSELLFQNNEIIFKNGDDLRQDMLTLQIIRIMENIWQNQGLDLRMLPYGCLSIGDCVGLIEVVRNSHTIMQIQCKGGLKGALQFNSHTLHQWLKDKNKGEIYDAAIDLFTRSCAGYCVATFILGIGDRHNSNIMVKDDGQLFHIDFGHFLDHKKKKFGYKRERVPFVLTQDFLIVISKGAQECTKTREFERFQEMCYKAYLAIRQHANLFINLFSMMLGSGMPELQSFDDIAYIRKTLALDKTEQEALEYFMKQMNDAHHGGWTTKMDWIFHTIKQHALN
T1 sequence (P27986 whole entry partner, species assumed): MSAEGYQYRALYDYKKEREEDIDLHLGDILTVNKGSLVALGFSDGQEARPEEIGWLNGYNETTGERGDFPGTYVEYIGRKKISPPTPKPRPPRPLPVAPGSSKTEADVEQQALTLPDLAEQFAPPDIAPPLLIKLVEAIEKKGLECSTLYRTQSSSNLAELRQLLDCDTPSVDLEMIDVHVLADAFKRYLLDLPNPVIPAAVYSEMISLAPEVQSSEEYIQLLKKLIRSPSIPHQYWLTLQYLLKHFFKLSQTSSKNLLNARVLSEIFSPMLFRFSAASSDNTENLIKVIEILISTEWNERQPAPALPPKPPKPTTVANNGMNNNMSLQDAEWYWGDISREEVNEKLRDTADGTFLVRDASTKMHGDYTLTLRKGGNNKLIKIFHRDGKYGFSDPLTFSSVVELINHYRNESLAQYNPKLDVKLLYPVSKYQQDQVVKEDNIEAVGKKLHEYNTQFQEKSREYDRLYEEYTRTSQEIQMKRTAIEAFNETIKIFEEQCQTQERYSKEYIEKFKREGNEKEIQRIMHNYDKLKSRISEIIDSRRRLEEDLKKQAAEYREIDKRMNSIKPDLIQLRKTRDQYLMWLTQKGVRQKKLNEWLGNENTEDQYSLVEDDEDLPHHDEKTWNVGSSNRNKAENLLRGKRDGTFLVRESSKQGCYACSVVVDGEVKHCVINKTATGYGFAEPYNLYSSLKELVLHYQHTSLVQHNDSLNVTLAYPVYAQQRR

For the compound `CNC(=O)Nc1cccc(-c2cnc3c(N4CCOCC4)nc(-c4cnc(N)nc4)nc3c2)c1` [Example 28, 1-(3-(2-(2-amino-pyrimidin-5-yl)-4-morpholinopyrido[3,2-d]pyrimidin-7-yl)phenyl)-3-methylurea], the IC50 in test [1] is < 50 nM; in test [2], 50 to 200 nM; in test [3], 501 to 5000 nM.

Turning to `CC(=O)Nc1cc(-c2cnc3c(N4CCOCC4)nc(-c4cnc(N)nc4)nc3c2)ccc1N1CCN(C)CC1` [Example 114, N-(5-(2-(2-amino-pyrimidin-5-yl)-4-morpholinopyrido[3,2-d]pyrimidin-7-yl)-2-(4-methylpiperazin-1-yl)-phenyl)acetamide], the figures for the IC50 in test [1], in test [2] and in test [3] were < 50 nM, < 50 nM and 100 to 500 nM, respectively.

As for `CC(=O)N1CCN(C(=O)c2cccc(-c3cnc4c(N5CCOCC5)nc(-c5cnc(N)nc5)nc4c3)c2)CC1` [Example 35, 1-(4-(3-(2-(2-amino-pyrimidin-5-yl)-4-morpholinopyrido[3,2-d]-pyrimidin-7-yl)benzoyl)-piperazin-1-yl)ethanone], the IC50 is < 50 nM in test [1], 50 to 200 nM in test [2] and 501 to 5000 nM in test [3].

On to `Nc1ncc(-c2nc(N3CCOCC3)c3ncc(-c4cccc(NC(=O)c5cncc(F)c5)c4)cc3n2)cn1` [Example 99, N-(3-(2-(2-amino-pyrimidin-5-yl)-4-morpholinopyrido[3,2-d]-pyrimidin-7-yl)phenyl)-5-fluoronicotinamide], for which the IC50 is < 50 nM in test [1], < 50 nM in test [2] and 100 to 500 nM in test [3].

With `Nc1ncc(-c2nc(N3CCOCC3)c3ncc(-c4ccc(NC(=O)c5cccnc5)cc4)cc3n2)cn1` [Example 77, N-(4-(2-(2-amino-pyrimidin-5-yl)-4-morpholinopyrido[3,2-d]pyrimidin-7-yl)-phenyl)nicotinamide], the IC50 in test [1] is < 50 nM; in test [2], < 50 nM; in test [3], 100 to 500 nM.

As for `CN1CCN(C(=O)c2cccc(-c3cnc4c(N5CCOCC5)nc(-c5cnc(N)nc5)nc4c3)c2)CC1` [Example 110, (3-(2-(2-aminopyrimidin-5-yl)-4-morpholinopyrido[3,2-d]-pyrimidin-7-yl)phenyl)(4-methylpiperazin-1-yl)-methanone], the IC50 was 50 to 200 nM in test [2] and 100 to 500 nM in test [3].

`Nc1ncc(-c2nc(N3CCOCC3)c3ncc(-c4cccc(C(=O)N5CCC(O)CC5)c4)cc3n2)cn1` [Example 40, (3-(2-(2-aminopyrimidin-5-yl)-4-morpholino-pyrido[3,2-d]pyrimidin-7-yl)phenyl)(4-hydroxy-piperidin-1-yl)methanone] displayed an IC50 in test [3] of 100 to 500 nM.

For the compound `Nc1ncc(-c2nc(N3CCOCC3)c3ncc(-c4ccc(C(=O)N5CCC(O)CC5)cc4)cc3n2)cn1` [Example 39, (4-(2-(2-aminopyrimidin-5-yl)-4-morpholino-pyrido[3,2-d]pyrimidin-7-yl)phenyl)(4-hydroxy-piperidin-1-yl)methanone], the IC50 in test [3] fell in the range of 501 to 5000 nM.

Turning to `Cc1cc(C(=O)Nc2ccc(-c3cnc4c(N5CCOCC5)nc(-c5cnc(N)nc5)nc4c3)cc2)[nH]n1` [Example 80, N-(4-(2-(2-amino-pyrimidin-5-yl)-4-morpholinopyrido[3,2-d]pyrimidin-7-yl)phenyl)-3-methyl-1H-pyrazole-5-carboxamide], in test [3], the IC50 was > 1000 nM.

Consider `CN(C)C(=O)c1cccc(-c2cnc3c(N4CCOCC4)nc(-c4cnc(N)nc4)nc3c2)c1` [Example 41, 3-(2-(2-aminopyrimidin-5-yl)-4-morpholinopyrido[3,2-d]pyrimidin-7-yl)-N,N-dimethylbenzamide], for which the figures for the IC50 in test [1] and in test [2] were < 50 nM and 50 to 200 nM, respectively.

As to `CC(C)(O)C(=O)Nc1cccc(-c2ccc3c(N4CCOCC4)nc(-c4cnc(N)nc4)nc3c2)c1` [Example 6, N-(3-(2-(2-Aminopyrimidin-5-yl)-4-morpholinoquinazolin-7-yl)phenyl)-2-hydroxy-2-methylpropanamide], the IC50 in test [1] and in test [2] was 50 to 200 nM in each case.

With `CC(O)C(=O)N1CCN(Cc2ccc3c(N4CCOCC4)nc(-c4cnc(N)nc4)nc3c2)CC1` (stereo not drawn) [Example 90, 1-(4-((2-(2-aminopyrimidin-5-yl)-4-morpholinoquinazolin-7-yl)methyl)piperazin-1-yl)-2-hydroxypropan-1-one], the IC50 in test [1] and in test [2] was 201 to 10000 nM in each case.

Regarding `CC(=O)Nc1cncc(-c2cnc3c(N4CCOCC4)nc(-c4cnc(N)nc4)nc3c2)c1` [Example 30, N-(5-(2-(2-amino-pyrimidin-5-yl)-4-morpholinopyrido[3,2-d]pyrimidin-7-yl)pyridin-3-yl)acetamide], the IC50 in test [1] is < 50 nM; in test [2], 201 to 10000 nM.

`CN(C)CC(=O)N1CCN(c2cccc(-c3cnc4c(N5CCOCC5)nc(-c5cnc(N)nc5)nc4c3)c2)CC1` [Example 112, 1-(4-(3-(2-(2-amino-pyrimidin-5-yl)-4-morpholinopyrido[3,2-d]pyrimidin-7-yl)-phenyl)piperazin-1-yl)-2-(dimethylamino)ethanone]: the IC50 in test [1] and in test [2] was < 50 nM each time.

As to `CC(O)C(=O)Nc1cccc(-c2ccc3c(N4CCOCC4)nc(-c4cnc(N)nc4)nc3c2)c1` (stereo not drawn) [Example 43, N-(3-(2-(2-amino-pyrimidin-5-yl)-4-morpholinoquinazolin-7-yl)phenyl)-2-hydroxy-propanamide], the IC50 in test [1] is 201 to 10000 nM; in test [2], < 50 nM.

On to `Nc1ncc(-c2nc(N3CCOCC3)c3ncc(-c4cccc(NC(=O)C5CCOCC5)c4)cc3n2)cn1` [Example 63, N-(3-(2-(2-amino-pyrimidin-5-yl)-4-morpholinopyrido[3,2-d]pyrimidin-7-yl)-phenyl)tetrahydro-2H-pyran-4-carboxamide], for which the concentration for half-maximal inhibition (IC50) in test [1] and in test [2] was < 50 nM in each case.

For `CN(C)CC(=O)Nc1cccc(-c2ccc3c(N4CCOCC4)nc(-c4cnc(N)nc4)nc3c2)c1` [Example 42, N-(3-(2-(2-amino-pyrimidin-5-yl)-4-morpholinoquinazolin-7-yl)phenyl)-2-(dimethylamino)-acetamide], the IC50 in test [1] lay in the range of 201 to 10000 nM; in test [2], 50 to 200 nM.

In the case of `CC(=O)N(C)c1cccc(-c2cnc3c(N4CCOCC4)nc(-c4cnc(N)nc4)nc3c2)c1` [Example 27, N-(3-(2-(2-amino-pyrimidin-5-yl)-4-morpholinopyrido[3,2-d]-pyrimidin-7-yl)phenyl)-N-methylacetamide], the IC50 in test [1] and in test [2] was 50 to 200 nM throughout.

Regarding `C[C@H](O)C(=O)Nc1cccc(-c2ccc3c(N4CCOCC4)nc(-c4cnc(N)nc4)nc3c2)c1` [Example 44], the IC50 in test [1] is 50 to 200 nM; in test [2], 201 to 10000 nM.

For the compound `Nc1ncc(-c2nc(N3CCOCC3)c3ccc(-c4cccc(NC(=O)N5CCOCC5)c4)cc3n2)cn1` [Example 88, N-(3-(2-(2-amino-pyrimidin-5-yl)-4-morpholinoquinazolin-7-yl)phenyl)morpholine-4-carboxamide], the IC50 in test [1] and in test [2] was 50 to 200 nM each time.

For the origin of these results see patent US9145411B2, “Substituted amino-pyrimidine derivatives” (Asana Biosciences, LLC, priority 2012, dated 2015).
